What all share (assay type): in vivo
What all share (conditions): application to foliage, 320 g/ha

One data set has as its system Setaria viridis. Nature of the data set: Test Example 4: herbicidal effect by application to foliage (diluvial soil, plastic box). An excerpt:
(§1) 5 Herbicidal ratio of 90% or more (almost completely withered) 4 Herbicidal ratio of 70% or more and less than 90% 3 Herbicidal ratio of 40% or more and less than 70% 2 Herbicidal ratio of 20% or more and less than 40% 1 Herbicidal ratio of 5% or more and less than 20% 0 Herbicidal ratio of 5% or less (almost no effect) [Test Example 4] Herbicidal Effect Test by Application to Foliage Sterilized diluvial soil was placed in a plastic box having a length of 21 cm, a width of 13 cm, and a depth of 7 cm. Each of the seeds of Digitaria ciliaris, Setaria viridis, Echinochloa crus-galli var. crus-galli, Avena fatua, Alopecurus myosuroides, Lolium multiflorum Lam., Apera spica-venti., Abutilon theophrasti, Amaranthus retroflexus, Chenopodium album, Stellaria media, Galium spurium, Veronica persica, Zea mays, Glycine max, Oryza sativa, Triticum aestivum, Beta vulgaris ssp. vulgaris, and Brassica campestris L. was sowed in a spot-like manner and was covered with the soil of about 1.5 cm thick. Thereafter, the plants were grown in the greenhouse of 25° C. to 30° C. After the plants were grown for 14 days, the emulsion agent containing the compound of the present invention prepared in accordance with Formulation Example 2 was diluted with water so as to be a predetermined herbicide amount and the diluted compound was uniformly applied to a stem and leaf part with a small-size spray. Three weeks after the herbicide application, effects on each plant were investigated in accordance with the criteria of Test Example 1. A: Echinochloa oryzicola Vasing., B: Scirpus juncoides, C: Monochoria vaginalis, D: Leptochloa chinensis, E: Cyperus difformis, F: Digitaria ciliaris, G: Setaria viridis, H: Echinochloa crus-galli var. crus-galli, I: Avena fatua, J: Alopecurus myosuroides, K: Lolium multiflorum Lam., L: Apera spica-venti., M: Abutilon theophrasti, N: Amaranthus retroflexus, O: Chenopodium album, P: Stellaria media, Q: Galium spurium, R: Veronica persica, a: transplanted Oryza sativa, b: directly sowed Oryza sativa, c: Zea mays, d: Glycine max, e: Triticum aestivum, f: Beta vulgaris ssp. vulgaris, and g: Brassica campestris L. The application herbicide amount (g/ha) means an amount that a concentration is adjusted so that, when an application amount is converted into per hectare (1 ha), the herbicide is applied by the number of grams (g) of the described value.

The test system of another data set is Lolium multiflorum Lam. The description is as above.
Text: as §1

The next data set deals with Amaranthus retroflexus. The description is as above.
Text: as §1

For the next data set, the system named is Veronica persica. The description is as above.
Text: as §1

The next data set concerns Digitaria ciliaris. The data set is described as above.
Text: as §1

The next data set has as its system Stellaria media. Described as above.
Text: as §1

A further data set has as its system Alopecurus myosuroides. Described as above.
Text: as §1

Another data set deals with Avena fatua. The data set is described as above.
Text: as §1

A further data set has as its system Chenopodium album. Described as above.
Text: as §1

Another data set has as its system Apera spica-venti. The description is as above.
Text: as §1

Data set [1] has as its system Echinochloa crus-galli var. crus-galli. The data set is described as above.
Text: as §1

For another data set, the system named is Abutilon theophrasti. The description is as above.
Text: as §1

The test system of a further data set is Galium spurium. Described as above.
Text: as §1

The test system of data set [2] is Beta vulgaris ssp. vulgaris. The data set is described as follows: Test Example 4: effect on crop by application to foliage (diluvial soil, plastic box). Summed up: (§2)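 Read-out is a 0–5 visual grade of herbicidal ratio (5: ≥90%, almost withered; 0: ≤5%) taken three weeks after treatment. Compound was applied as a diluted emulsion to stem and leaf parts of 14-day greenhouse-grown plants (25° C. to 30° C.) at rates expressed as g/ha.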

Data set [3] has as its system directly sowed Oryza sativa. Described as above. An outline of the steps:
as §2

In the next data set the test system is Triticum aestivum. Described as above. An outline of the steps: as §2
The test system of a further data set is Brassica campestris L. The description is as above. Summed up: as §2
Another data set relates to Glycine max. Described as above. An outline of the steps: as §2
A further data set relates to Zea mays. Described as above. Summed up:
as §2

For the molecule `CC(C)c1nnc2c(C(=O)Nc3ncnn3C)ccc(C(F)(F)F)n12` [4-001], the “herbicidal effect, G (Setaria viridis)” value with Setaria viridis is 2 (Herbicidal ratio of 20% or more and less than 40%). Besides, the “herbicidal effect, K (Lolium multiflorum Lam.)” value in the data set on Lolium multiflorum Lam. is recorded as 0 (Herbicidal ratio of 5% or less (almost no effect)). The “herbicidal effect, N (Amaranthus retroflexus)” value with Amaranthus retroflexus is given as 5 (Herbicidal ratio of 90% or more (almost completely withered)). Further, the “herbicidal effect, R (Veronica persica)” value in the data set with Veronica persica is 3 (Herbicidal ratio of 40% or more and less than 70%). Further, the “herbicidal effect, F (Digitaria ciliaris)” value in the data set with Digitaria ciliaris is 1 (Herbicidal ratio of 5% or more and less than 20%). Further, in the data set on Stellaria media, the “herbicidal effect, P (Stellaria media)” value was 3 (Herbicidal ratio of 40% or more and less than 70%). In addition, the “herbicidal effect, J (Alopecurus myosuroides)” value in the data set on Alopecurus myosuroides is on record as 0 (Herbicidal ratio of 5% or less (almost no effect)). In the data set on Avena fatua, the “herbicidal effect, I (Avena fatua)” value is 1 (Herbicidal ratio of 5% or more and less than 20%). Besides, the “herbicidal effect, O (Chenopodium album)” value in the data set with Chenopodium album is on record as 5 (Herbicidal ratio of 90% or more (almost completely withered)). Moreover, in the data set on Apera spica-venti., the “herbicidal effect, L (Apera spica-venti.)” value is given as 0 (Herbicidal ratio of 5% or less (almost no effect)). In addition, in data set [1], the “herbicidal effect, H (Echinochloa crus-galli var. crus-galli)” value was 3 (Herbicidal ratio of 40% or more and less than 70%). The “herbicidal effect, M (Abutilon theophrasti)” value in the data set with Abutilon theophrasti was 5 (Herbicidal ratio of 90% or more (almost completely withered)). Also, the “herbicidal effect, Q (Galium spurium)” value in the data set on Galium spurium is 3 (Herbicidal ratio of 40% or more and less than 70%). Moreover, in data set [2], the “effect on crop, f (Beta vulgaris ssp. vulgaris)” value was 2 (Herbicidal ratio of 20% or more and less than 40%). Besides, the “effect on crop, d (directly sowed Oryza sativa)” value in [3] was 2 (Herbicidal ratio of 20% or more and less than 40%). Moreover, the “effect on crop, e (Triticum aestivum)” value in the data set on Triticum aestivum is recorded as 0 (Herbicidal ratio of 5% or less (almost no effect)). In the data set on Brassica campestris L., the “effect on crop, g (Brassica campestris L.)” value is on record as 0 (Herbicidal ratio of 5% or less (almost no effect)). The “effect on crop, c (Glycine max)” value in the data set with Glycine max is reported as 0 (Herbicidal ratio of 5% or less (almost no effect)). The “effect on crop, b (Zea mays)” value in the data set on Zea mays is recorded as 0 (Herbicidal ratio of 5% or less (almost no effect)).

In the case of `Cc1nnc(NC(=O)c2ccc(C(F)(F)F)n3c(=O)n(C(C)C)nc23)o1` [6-005], the “herbicidal effect, G (Setaria viridis)” value with Setaria viridis was 1 (Herbicidal ratio of 5% or more and less than 20%). In the data set with Lolium multiflorum Lam., the “herbicidal effect, K (Lolium multiflorum Lam.)” value was 1 (Herbicidal ratio of 5% or more and less than 20%). In addition, in the data set with Amaranthus retroflexus, the “herbicidal effect, N (Amaranthus retroflexus)” value is 3 (Herbicidal ratio of 40% or more and less than 70%). The “herbicidal effect, R (Veronica persica)” value in the data set with Veronica persica was 1 (Herbicidal ratio of 5% or more and less than 20%). In addition, in the data set with Digitaria ciliaris, the “herbicidal effect, F (Digitaria ciliaris)” value is 3 (Herbicidal ratio of 40% or more and less than 70%). Also, the “herbicidal effect, P (Stellaria media)” value with Stellaria media is 1 (Herbicidal ratio of 5% or more and less than 20%). Moreover, the “herbicidal effect, J (Alopecurus myosuroides)” value in the data set with Alopecurus myosuroides is 1 (Herbicidal ratio of 5% or more and less than 20%). Moreover, the “herbicidal effect, I (Avena fatua)” value in the data set with Avena fatua is reported as 0 (Herbicidal ratio of 5% or less (almost no effect)). The “herbicidal effect, O (Chenopodium album)” value in the data set on Chenopodium album was 3 (Herbicidal ratio of 40% or more and less than 70%). Besides, the “herbicidal effect, L (Apera spica-venti.)” value with Apera spica-venti. was 1 (Herbicidal ratio of 5% or more and less than 20%). Also, the “herbicidal effect, H (Echinochloa crus-galli var. crus-galli)” value in data set [1] was 3 (Herbicidal ratio of 40% or more and less than 70%). The “herbicidal effect, M (Abutilon theophrasti)” value in the data set on Abutilon theophrasti is 4 (Herbicidal ratio of 70% or more and less than 90%). Besides, the “herbicidal effect, Q (Galium spurium)” value in the data set with Galium spurium is 1 (Herbicidal ratio of 5% or more and less than 20%). Also, in data set [2], the “effect on crop, f (Beta vulgaris ssp. vulgaris)” value is 1 (Herbicidal ratio of 5% or more and less than 20%). Further, the “effect on crop, d (directly sowed Oryza sativa)” value in data set [3] is reported as 0 (Herbicidal ratio of 5% or less (almost no effect)). Besides, in the data set on Triticum aestivum, the “effect on crop, e (Triticum aestivum)” value is recorded as 0 (Herbicidal ratio of 5% or less (almost no effect)). For the same molecule, in the data set on Brassica campestris L., the “effect on crop, g (Brassica campestris L.)” value is on record as 0 (Herbicidal ratio of 5% or less (almost no effect)). In addition, the “effect on crop, c (Glycine max)” value with Glycine max is reported as 0 (Herbicidal ratio of 5% or less (almost no effect)). In addition, in the data set on Zea mays, the “effect on crop, b (Zea mays)” value is 0 (Herbicidal ratio of 5% or less (almost no effect)).
